Like-named read-outs stand apart in the source and are kept apart here. Each block holds one compound with its values, some of them ahead of it.
What was measured:
[1] = tested on: α7-nAChR; conditions: cited from earlier work
[2] = tested on: α7/5-HT3A; conditions: cited from earlier work; for EC50: Ca2+ dye (Fluo-3-AM) on HEK293 cells expressing human receptors, read-out: EC50, α7/5-HT3A (non-CNiFER)
[3] = biological target: human α7 nicotinic acetylcholine receptors (Homo sapiens, UniProt P36544); test: cell-based; assay type: cell-based
Sequence of human α7 nicotinic acetylcholine receptors (P36544 23-502): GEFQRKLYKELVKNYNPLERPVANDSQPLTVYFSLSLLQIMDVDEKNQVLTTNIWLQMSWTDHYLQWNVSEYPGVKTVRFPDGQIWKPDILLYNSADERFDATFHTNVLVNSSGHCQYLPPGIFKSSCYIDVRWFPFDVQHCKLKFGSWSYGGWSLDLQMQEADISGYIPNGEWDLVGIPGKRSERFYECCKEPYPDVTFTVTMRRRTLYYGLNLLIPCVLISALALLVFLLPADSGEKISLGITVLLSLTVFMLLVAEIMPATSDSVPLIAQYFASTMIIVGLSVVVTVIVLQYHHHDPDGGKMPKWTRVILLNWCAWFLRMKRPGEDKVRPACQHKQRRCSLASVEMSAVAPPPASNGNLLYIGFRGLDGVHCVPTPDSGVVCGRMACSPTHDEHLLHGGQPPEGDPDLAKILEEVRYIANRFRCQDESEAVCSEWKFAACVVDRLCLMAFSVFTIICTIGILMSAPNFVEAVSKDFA

[4] = biological target: α7-nAChR (Homo sapiens, UniProt P36544); conditions: read-out: EC50, α7-nAChR (non-CNiFER); potential-sensitive dye, human receptors
Sequence of α7-nAChR (Homo sapiens, UniProt P36544) (P36544 23-502): as above

[5] = biological target: T1, mouse 5-HT3A serotonin receptors (Mus musculus, UniProt P23979); test: 5-HT3A CNiFER FRET Flex assay; assay type: cell-based; conditions: for mode of antagonism / Schild Slope: vs 5-HT; for Schild Slope: in aCSF
T1 sequence (P23979 24-489): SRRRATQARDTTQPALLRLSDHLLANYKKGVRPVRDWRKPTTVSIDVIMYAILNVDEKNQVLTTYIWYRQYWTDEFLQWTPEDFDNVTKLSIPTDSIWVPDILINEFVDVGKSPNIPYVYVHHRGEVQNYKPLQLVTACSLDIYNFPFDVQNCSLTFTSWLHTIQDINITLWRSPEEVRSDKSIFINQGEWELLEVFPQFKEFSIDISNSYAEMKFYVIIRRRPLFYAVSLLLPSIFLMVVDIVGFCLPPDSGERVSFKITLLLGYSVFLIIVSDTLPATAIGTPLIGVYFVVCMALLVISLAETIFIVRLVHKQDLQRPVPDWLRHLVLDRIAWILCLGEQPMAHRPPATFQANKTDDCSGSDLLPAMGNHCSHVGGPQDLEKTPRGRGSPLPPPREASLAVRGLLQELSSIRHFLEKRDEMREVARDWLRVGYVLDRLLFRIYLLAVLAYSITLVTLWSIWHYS
Description: Cells were cultured in 10 cm plates with DMEM (Mediatech, Manassas, VA) supplemented with 10% FBS (Gemini Bio-Products, West Sacramento, CA; Atlanta Biologicals, Lawrenceville, GA) and 1% Glutamine (Invitrogen), and incubated at 37°C with 10% CO2. Cells were selected at ∼70% confluency and plated the day before using 100 µl volumes per well into black, transparent flat-bottom, TC treated 96-well plates (Thermo, Waltham, MA; E&K, Greiner Campbell, CA). Plates were removed from the incubator the next day and the media was replaced with 100 µl of artificial cerebral spinal fluid (aCSF) [containing 121 mM NaCl, 2.4 mM Ca^2+, 1.3 mM Mg^2+, 5 mM KCl, 26 mM NaHCO3, 1.2 mM Na2HPO4, 10 mM glucose, 5 mM Hepes Na^+, pH 7.4]. For all assays performed on α7-nAChR CNiFERs 10 µM of the PAM, PNU-120596 (Tocris, Ellisville, MO), was prepared in aCSF. In the case of antagonist measurements, antagonists, at 1.5 times the final desired concentration, were prepared in aCSF. For non-CNiFER cell lines, Blue Membrane Potential dye (Molecular Devices, Sunnyvale, CA) was prepared in aCSF and diluted 2 fold the recommended dilution. Plates were incubated for at least 30 min at 37°C and 10% CO2 for any assay that included antagonist, dye, or PAM modification to the aCSF. Following incubation, plates were removed and placed into the Molecular Devices FlexStation III instrument and run at 37°C. Injection rates varied between […], and 50 µl of the specified agonist prepared at 3x final concentration in the aforementioned aCSF solution was injected after 30 s of baseline measurement. […] All wells were replicated (two or three times) in the same plate. Mean peak FRET ratios calculated from replicates were exported and plotted against agonist concentrations using Graphpad Prism 4 (Carlsbad, CA). A sigmoidal concentration-response (variable slope) regression of the mean peak FRET ratios was fit to generate a concentration-response curve and obtain an EC50 value.
To measure potencies of competitive antagonists, three concentration-response curves with different antagonist concentrations were compared to a control curve (without antagonist). Mean FRET responses generated concentration response curves, and antagonist dependent shifts in EC50 values were used to calculate dose ratios (DR), as a concentration ratio of EC50'/EC50 for the specified agonist (where EC50' is in the presence of the antagonist at the specified concentration). DRs were used to produce a Schild regression plot for analysis of competitive antagonism and generate a Ka value. Analysis consisted of potting Log (DR-1) against –Log [Antagonist]. The Schild Ka value for competitive antagonists was calculated from the x-intercept at y = 0, as the –Log (Ka), [38]. All errors reported are arithmetic standard deviations unless otherwise noted.

Compound: CCN1C[C@]2(COC(=O)c3ccccc3N3C(=O)C[C@H](C)C3=O)CC[C@H](OC)[C@@]34[C@@H]5C[C@H]6[C@H](OC)[C@@H]5[C@](O)(C[C@@H]6OC)[C@@](O)([C@@H](OC)[C@H]23)[C@@H]14 [MLA, methyllycaconitine]
half time for dissociation [1]: 2.3 min
IC50 ([2]; read-out: IC50 (non-CNiFER)): 36 ± 13 nM
Kd [3]: 3.2 nM
Schild Slope [3]: −1.2±0.3
mode of antagonism (Schild analysis) [3]: competitively

Compound: (−)-Nicotine
EC50 [2]: 19100 nM

Compound: Clc1ccc(C2CC3CCC2N3)cn1 (racemic) [(±)-Epibatidine, (±)-epibatidine]
EC50 [4]: 17 ± 2.6 nM
EC50 [2]: 180 ± 20 nM
EC50 ([3]; read-out: EC50, α7-nAChR CNiFER): 28 nM
EC50 ([3]; read-out: EC50 of agonist curve): 3.6 nM

Results, then the compound that gave them:

Hill coefficient ([5]; 5-HT3A CNiFER concentration-response (Figure 6A)): 2.6
Compound: NCCc1c[nH]c2ccc(O)cc12 [5-HT, 5-Hydroxytryptamine]

Kd ([5]; read-out: CNiFER Ka (Schild)): 1.6 ± 0.9 nM
mode of antagonism [5]: near competitive block
Schild Slope [5]: −1.3±0.04
Schild Slope ([5]; listed as ondansetron): -1.3±0.04
Compound: Cc1nccn1CC1CCc2c(c3ccccc3n2C)C1=O (stereo not shown) [Ondansetron, ondansetron]

mode of antagonism [5]: greater non-competitive component
Compound: CN1[C@@H]2CC[C@H]1C[C@@H](OC(=O)c1c[nH]c3ccccc13)C2 [tropisetron]
